Data as given in patent US20100003217A1, “Compounds and Pharmaceutical Compositions for the Treatment of Viral Infections” (priority 2008, published 2010).
Several values for one entry are separate records, joined by “and”; a condition that tells them apart may be missing. Equal values may be shown once.

Tests used:
[1] = system: rat primary hepatocytes; experiment: Metabolic disposition of [^14C]-Compound 1 and [^14C]-2′-C-methyl guanosine in rat primary hepatocytes (incubation medium, cellular extracts, nucleotide levels); type: in vitro ADME, Sprague Dawley rat
How it was run: (§1)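 Rat, monkey or human primary hepatocytes on collagen I plates (1.6 million cells/mL) were incubated at 37° C with 1 or 10 μM C-8 [^14C]-labelled compound or 2′-C-methyl guanosine for 1, 4, 8 and 24 hours. Medium and 70% methanol cell extracts were analysed by LSC and radio-HPLC. Nucleotides were identified by alkaline phosphatase treatment and retention-time matching to standards.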

[2] = system: monkey primary hepatocytes; experiment: Metabolic disposition of [^14C]-Compound 1 and [^14C]-2′-C-methyl guanosine in monkey primary hepatocytes (incubation medium, cellular extracts, nucleotide levels); type: in vitro ADME, Cynomolgus monkey; conditions: for AUC (area under the concentration-time curve) of Compound 7 levels: 0-24 h
How it was run: as §1

[3] = monkey hepatocytes (Cy234), 10 μM [^14C]-Compound 1, 4 h
[4] = monkey hepatocytes Cy230, 10 μM [^14C]-2′-C-methyl guanosine, 1 h
[5] = monkey hepatocytes Cy230, 10 μM [^14C]-2′-C-methyl guanosine, 8 h
[6] = monkey hepatocytes Cy230, 10 μM [^14C]-2′-C-methyl guanosine, 24 h
[7] = monkey hepatocytes Cy234, 10 μM [^14C]-2′-C-methyl guanosine, 1 h
[8] = monkey hepatocytes Cy234, 10 μM [^14C]-2′-C-methyl guanosine, 4 h
[9] = monkey hepatocytes Cy234, 10 μM [^14C]-2′-C-methyl guanosine, 8 h
[10] = monkey hepatocytes Cy234, 10 μM [^14C]-2′-C-methyl guanosine, 24 h

2′-C-methyl guanosine nucleotide levels in cellular extracts ([1]; rat hepatocytes Rs458, 10 μM [^14C]-Compound 1, 0 h): 0 pmol/million cells
AUC (area under the concentration-time curve) of Compound 7 levels ([1]; rat hepatocytes Rs458, 10 μM [^14C]-Compound 1, 0-24 h): 28123 pmol * hr/million cells
2′-C-methyl guanosine nucleotide levels in cellular extracts ([1]; rat hepatocytes Rs458, 10 μM [^14C]-Compound 1, 1 h): 534 pmol/million cells
2′-C-methyl guanosine nucleotide levels in cellular extracts ([1]; rat hepatocytes Rs458, 10 μM [^14C]-Compound 1, 4 h): 1347 pmol/million cells
2′-C-methyl guanosine nucleotide levels in cellular extracts ([1]; rat hepatocytes Rs458, 10 μM [^14C]-Compound 1, 8 h): 1618 pmol/million cells
2′-C-methyl guanosine nucleotide levels in cellular extracts ([1]; rat hepatocytes Rs458, 10 μM [^14C]-Compound 1, 24 h): 770 pmol/million cells
Compound 7 maximal levels ([1]; rat hepatocytes, 1 μM [^14C]-Compound 1): 103 pmol/million cells
Maximum Compound 7 levels ([1]; rat hepatocytes, 10 μM [^14C]-2′-C-methyl guanosine, at 24 hours): 249 pmol/million cells
Compound 7 AUC0-24h ([1]; rat hepatocytes, 10 μM [^14C]-Compound 1): 29,846 pmol*h/million cells
Compound 7 maximum levels ([1]; rat hepatocytes, 10 μM [^14C]-Compound 1, at 8 hours): 1,705 pmol/million cells
metabolites observed in cellular extracts (% of total radioactivity) ([2]; monkey hepatocytes (Cy230, Cy234), 10 μM [^14C]-Compound 1, 1 h): 63.4% and 34.9%
metabolites observed in cellular extracts (% of total radioactivity) ([2]; monkey hepatocytes (Cy230, Cy234), 10 μM [^14C]-Compound 1, 8 h): 80.9% and 77.6%
metabolites observed in cellular extracts (% of total radioactivity) ([2]; monkey hepatocytes (Cy230, Cy234), 10 μM [^14C]-Compound 1, 24 h): 72.2% and 79.4%
2′-C-methyl guanosine nucleotide levels in cellular extracts [2, 3]: 183 pmol/million cells
metabolites observed in cellular extracts (% of total radioactivity) [2, 3]: 70.3%
2′-C-methyl guanosine nucleotide levels in cellular extracts ([2]; monkey hepatocytes Cy230, 10 μM [^14C]-2′-C-methyl guanosine, 0 h): 0 pmol/million cells
AUC (area under the concentration-time curve) of Compound 7 levels ([2]; monkey hepatocytes Cy230, 10 μM [^14C]-2′-C-methyl guanosine): 241 pmol * hr/million cells
2′-C-methyl guanosine nucleotide levels in cellular extracts [2, 4]: 2.87 pmol/million cells
Major metabolites observed in cellular extracts (% of total radioactivity) [2, 4]: 3.63 % of total radioactivity
Major metabolites observed in cellular extracts (% of total radioactivity) [2, 5]: 19.9 % of total radioactivity
2′-C-methyl guanosine nucleotide levels in cellular extracts [2, 6]: 6.85 pmol/million cells
Major metabolites observed in cellular extracts (% of total radioactivity) [2, 6]: 26.6 % of total radioactivity
2′-C-methyl guanosine nucleotide levels in cellular extracts ([2]; monkey hepatocytes Cy230, 10 μM [^14C]-Compound 1, 0 h): 0 pmol/million cells
AUC (area under the concentration-time curve) of Compound 7 levels ([2]; monkey hepatocytes Cy230, 10 μM [^14C]-Compound 1): 13765 pmol * hr/million cells
2′-C-methyl guanosine nucleotide levels in cellular extracts ([2]; monkey hepatocytes Cy230, 10 μM [^14C]-Compound 1, 1 h): 180 pmol/million cells
2′-C-methyl guanosine nucleotide levels in cellular extracts ([2]; monkey hepatocytes Cy230, 10 μM [^14C]-Compound 1, 8 h): 895 pmol/million cells
2′-C-methyl guanosine nucleotide levels in cellular extracts ([2]; monkey hepatocytes Cy230, 10 μM [^14C]-Compound 1, 24 h): 344 pmol/million cells
2′-C-methyl guanosine nucleotide levels in cellular extracts ([2]; monkey hepatocytes Cy234, 10 μM [^14C]-2′-C-methyl guanosine, 0 h): 0 pmol/million cells
AUC (area under the concentration-time curve) of Compound 7 levels ([2]; monkey hepatocytes Cy234, 10 μM [^14C]-2′-C-methyl guanosine): 956 pmol * hr/million cells
2′-C-methyl guanosine nucleotide levels in cellular extracts [2, 7]: 4.00 pmol/million cells
Major metabolites observed in cellular extracts (% of total radioactivity) [2, 7]: 8.70 % of total radioactivity
2′-C-methyl guanosine nucleotide levels in cellular extracts [2, 8]: 29.0 pmol/million cells
Major metabolites observed in cellular extracts (% of total radioactivity) [2, 8]: 35.6 % of total radioactivity
2′-C-methyl guanosine nucleotide levels in cellular extracts [2, 9]: 39.0 pmol/million cells
Major metabolites observed in cellular extracts (% of total radioactivity) [2, 9]: 43.0 % of total radioactivity
2′-C-methyl guanosine nucleotide levels in cellular extracts [2, 10]: 57.0 pmol/million cells
Major metabolites observed in cellular extracts (% of total radioactivity) [2, 10]: 51.8 % of total radioactivity
2′-C-methyl guanosine nucleotide levels in cellular extracts ([2]; monkey hepatocytes Cy234, 10 μM [^14C]-Compound 1, 0 h): 0 pmol/million cells
AUC (area under the concentration-time curve) of Compound 7 levels ([2]; monkey hepatocytes Cy234, 10 μM [^14C]-Compound 1): 9861 pmol * hr/million cells
2′-C-methyl guanosine nucleotide levels in cellular extracts ([2]; monkey hepatocytes Cy234, 10 μM [^14C]-Compound 1, 1 h): 22.0 pmol/million cells
2′-C-methyl guanosine nucleotide levels in cellular extracts ([2]; monkey hepatocytes Cy234, 10 μM [^14C]-Compound 1, 8 h): 476 pmol/million cells
2′-C-methyl guanosine nucleotide levels in cellular extracts ([2]; monkey hepatocytes Cy234, 10 μM [^14C]-Compound 1, 24 h): 552 pmol/million cells
Maximum Compound 7 levels ([2]; monkey hepatocytes, 10 μM [^14C]-2′-C-methyl guanosine, at 24 hours): 32 pmol/million cells
Compound 7 AUC0-24h ([2]; monkey hepatocytes, 10 μM [^14C]-Compound 1): 11,813 pmol*h/million cells
major intracellular metabolite, % of total intracellular radioactivity ([2]; monkey hepatocytes, 10 μM [^14C]-Compound 1, from 4-24 hours): > 70%
Compound: C[C@@]1(O)[C@H](O)[C@@H](COP(=O)(O)OP(=O)(O)OP(=O)(O)O)O[C@H]1n1cnc2c(=O)[nH]c(N)nc21 [Compound 7, [(2R)-2-methyl-β-D-ribofuranosyl]guanine 5′-triphosphate]
2′-C-methyl guanosine nucleotide levels in cellular extracts [2, 5]: 14.58 pmol/million cells and 14.6 pmol/million cells
Compound 7 peak levels ([2]; monkey hepatocytes, 10 μM [^14C]-Compound 1, at 8 hours in one donor and at 24 hours in the second): 895 pmol/million cells and 552 pmol/million cells
